Values of other authors as cited in patent publication US20230233498A1, “COMPOSITIONS AND METHODS FOR THE TREATMENT OF COVID-19” (PROTHIONE, LLC, priority 2020, published 2023).
Where two headings read alike, the source gives them in different places.

Legend:
[1] = system: zinc-dependent metalloproteinases; conditions: for GP shedding: higher concentrations (25-50 mM)
rotaviruses = conditions: 10 mM
[2] = system: Human Foreskin (HF) cells infected with HSV-2-strain G; conditions: 3 to 1.5 mM

## CNC(=O)[C@@H](NC(=O)[C@H](CC(C)C)[C@H](O)C(=O)NO)C(C)(C)C [BB2516]
[1]; concentration of 0.5 mM
  inhibition of glycoprotein shedding: inhibitory effects were observed

## COc1ccc(S(=O)(=O)N(Cc2cccnc2)[C@@H](C(=O)NO)C(C)C)cc1 [CGS-27023A]
[1]
  GP shedding: reduced GP shedding

## O=C(O)CN(CCN(CC(=O)O)CC(=O)O)CC(=O)O [EDTA, ethylenediaminetetraacetic acid]
rotaviruses
  effect on viral particles: non-infectious viral particles

## CNC(=O)[C@H](Cc1c[nH]c2ccccc12)NC(=O)[C@@H](CC(=O)NO)CC(C)C [GM6001]
[1]; concentration of 5 mM
  inhibition of glycoprotein shedding: inhibitory effects were observed

## COc1ccc(S(=O)(=O)N(CC(=O)NO)CC(C)C)cc1 [MMP-3 inhibitor II]
[1]
  GP shedding: reduced GP shedding

## COc1ccc(S(=O)(=O)N2Cc3ccccc3C[C@@H]2C(=O)NO)cc1 [MMP-8 inhibitor I]
[1]; concentration of 5 mM
  inhibition of glycoprotein shedding: inhibitory effects were observed

## CC(C)C[C@H](CC(=O)NO)C(=O)N[C@@H](Cc1ccc2ccccc2c1)C(=O)N[C@@H](C)C(=O)NCCN [TAPI-I]
[1]
  GP shedding: reduced GP shedding

## O=C(O)c1ccccn1 [picolinic acid]
[2]
  apoptosis of infected cells: cause apoptosis of HF infected cells
